Read-outs that look alike come from different tables or passages of the source.
Key:
human DAT = target: T1, human DAT (Homo sapiens, UniProt Q01959); assay: DAT uptake SPA in hDAT-CHO cells; type: cell-based
T1 construct: expressed in transfected cells; host or cells: CHO (hDAT-CHO)
Protocol: Methods-Evaluation of Monoamine Uptake/Transporter Inhibition: Inhibitory activity on DAT function was measured using an uptake assay in a recombinant CHO cell line stably expressing human DAT (hDAT-CHO). Potency was measured in terms of pIC50 by testing for inhibition of [3H]-dopamine uptake in hDAT-CHO cells in a multiwell format SPA.
Briefly, on experiment days, hDAT-CHO cells were detached using Versene and added at a density of approximately 300,000 cells/mL to the SPA Mixture, which contains the following components in Assay Buffer (20 mM HEPES, 145 mM NaCl, 5 mM KCl, 2 mM CaCl2), 1 mM MgCl2, 5.5 mM glucose, 0.01% Pluronic F127, pH 7.3): 0.75 mg/mL SPA Imaging beads (RPNQ0001, PerkinElmer), 10 μM pargyline and 80 nM of [3H]-dopamine (NET673, PerkinEImer). The SPA Mixture was added 20 μL/well to 384 well plates containing 0.1 μL/well of test compound in neat DMSO (11 points of 1:5 serial dilution, 0.5% DMSO final) or 0.1 μL of DMSO (total uptake) or 0.1 μL of the standard inhibitor indatraline (at 1 μM final concentration, as nonspecific uptake). Plates were sealed with a Top-seal A and read using a Microbeta counter (PerkinElmer) after 45 minutes of incubation at room temperature. […] The SPA Mixture was added 20 μL/well to 384 well plates containing 0.1 μL/well of test compound in neat DMSO (11 points of 1:5 serial dilution, 0.5% DMSO final), 0.1 μL of DMSO (total uptake), or 0.1 μL of the standard inhibitor indatraline (1 μM, nonspecific uptake). Plates were sealed with a Top-seal A and read using a Microbeta counter (PerkinElmer) after 120 minutes of incubation at room temperature.
For both tests, the raw experimental data (cpm) were elaborated for the determination of pIC50/IC50 values as % inhibition of specific uptake.

CYP2B6 = target: T2, CYP2B6 (Homo sapiens, UniProt P20813); assay: CYP450 inhibition, fluorescent probe substrate; type: in vitro ADME
T2 construct: purchased Life Technologies P3028; host or cells: Baculosomes
T2 sequence (P20813 1-491): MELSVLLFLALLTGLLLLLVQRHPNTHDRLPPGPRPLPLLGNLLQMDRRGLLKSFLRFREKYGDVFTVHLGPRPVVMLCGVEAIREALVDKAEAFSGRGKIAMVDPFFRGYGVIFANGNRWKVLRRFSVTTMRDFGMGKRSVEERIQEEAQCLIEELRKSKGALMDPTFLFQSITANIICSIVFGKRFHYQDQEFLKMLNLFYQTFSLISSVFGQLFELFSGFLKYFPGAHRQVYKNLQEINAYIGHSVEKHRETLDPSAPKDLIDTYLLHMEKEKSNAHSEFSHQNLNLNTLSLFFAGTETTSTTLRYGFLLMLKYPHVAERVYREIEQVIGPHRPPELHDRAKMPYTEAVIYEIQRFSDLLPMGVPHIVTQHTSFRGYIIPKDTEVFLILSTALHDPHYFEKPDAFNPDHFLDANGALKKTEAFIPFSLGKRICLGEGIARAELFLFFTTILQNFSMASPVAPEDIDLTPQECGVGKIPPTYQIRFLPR
Protocol: (§1) Methods: Recombinant human CYP450 isoenzymes were used to metabolize pro-fluorescent probe substrates to fluorescent products. IC50 values determined from the effect of test compounds on the metabolism of these probe substrates were then used to determine inhibitory potency against CYP450 isoforms. The chemical reagents included:
(§2) The test system was based on a three-step procedure with a “mix and read” format, where reaction and reading were performed at 37° C. The assays described herein measure in vitro inhibitory effects (pIC50) of compounds on the human P450 isoforms (1A2, 2B6, 2C8, 2C9, 2C19, 2D6, 3A4) expressed in recombinant microsomes. Pro-fluorescent probe substrates were metabolized to fluorescent products by the enzymes. Fluorescence was measured in kinetic mode (1 read/minutes for 10 minutes), and the fluorescence rate was calculated.
(§3) Inhibition of the fluorescent signal resulting from P450 activation indicated inhibitory activity and facilitated calculation of the compound pIC50. A quality check was included in each compound plate, wherein the signal window was monitored by performing Z′ calculations ([…] ) and the antagonist potency of internal standards was within the pIC50±2SD range. Concentration response curves (CRCs) of compounds were run on two different test occasions (n 2) by preparing serial dilutions from the same compound stock solution.
(§4) To prepare the compound plate, test compounds serial dilutions 1 to 3 were performed from a 10 mM stock solution in DMSO by Biomek FX to generate 10 point CRC with the highest concentrations in columns 3 and 13.
(§5) 100% DMSO was placed in columns 1 and 2 and used for assay low controls. CYP inhibitor (10 mM miconazole solution in DMSO) was placed in columns 23 and 24 and served as an assay high controls. 1 μL copy plates were then stamped into V-bottom drug plates at a concentration that is 200 fold the final assay concentration. The copy plates were diluted prior to the experiment with assay buffer to reach 4 times the final assay concentration (2% w/v DMSO).
(§6) A reference compound (e.g., miconazole) was included in each compound plate in row A, column 3 and 13. The reference compound was diluted and stamped together with test compounds. The final concentrations of the 10 point CRCs of test compounds in the assay plate were 5.00E-05; 1.67E-05; 5.56E-06; 1.85E-06; 6.17E-07; 2.06E-07; 6.86E-08; 2.29E-08; 7.62E-09 and 2.54E-09, respectively. All solutions were prepared immediately before the assay.
(§7) The CYP3A4 and CYP2C8 were assayed using the Vivid CYP3A4 Baculosomes, CYP2C8 Baculosomes and Vivid DBOMF Substrate (Life Technologies, cat. P2377, PV6138 and P2974 respectively), while 2B6 is tested by Vivid CYP2B6 Baculosomes and Vivid BOMCC Substrate (Life Technologies, cat. P3028 and P2975). Test compounds were prepared as specified above.
(§8) The assay plate was prepared by preparing pre-mix by diluting P450 Baculosomes Plus Reagent and Vivid Regeneration System in 1× Vivid CYP450 Reaction Buffer (Potassium Phosphate Buffer, 100 mM, pH 8.0). Briefly, 8 μL/ml of P450 Baculosomes Plus Reagent and 16 μL/ml of Vivid Regeneration System were added to achieve the appropriate final concentrations and then mixed by inversion. 30 μL of pre-mix were dispensed into each well of a black, 384-well plate.
(§9) Next, 10 μL/well from the compound plate was added and incubated for 10 minutes at 37° C. on a plate shaker, while a mixture of Vivid Substrate and Vivid NADP+ in Vivid CYP450 Reaction Buffer was prepared. The reaction was initiated by adding 10 μL/well of the Vivid Substrate and NADP+ mixture, before transferring the plate into the fluorescent plate reader (immediately, within 2 minutes), and fluorescence was monitored every minute for 10 minutes according to the specific protocol.
(§10) Regarding data analysis, inhibition is expressed as a percentage. […] Curve fitting and pIC50 estimations are carried out using a four-parameter logistic model in Morphit.

CYP2C8 = target: T3, CYP2C8 (Homo sapiens, UniProt P10632); assay: CYP450 inhibition, fluorescent probe substrate; type: in vitro ADME
T3 construct: purchased Life Technologies PV6138; host or cells: Baculosomes
T3 sequence (P10632 1-490): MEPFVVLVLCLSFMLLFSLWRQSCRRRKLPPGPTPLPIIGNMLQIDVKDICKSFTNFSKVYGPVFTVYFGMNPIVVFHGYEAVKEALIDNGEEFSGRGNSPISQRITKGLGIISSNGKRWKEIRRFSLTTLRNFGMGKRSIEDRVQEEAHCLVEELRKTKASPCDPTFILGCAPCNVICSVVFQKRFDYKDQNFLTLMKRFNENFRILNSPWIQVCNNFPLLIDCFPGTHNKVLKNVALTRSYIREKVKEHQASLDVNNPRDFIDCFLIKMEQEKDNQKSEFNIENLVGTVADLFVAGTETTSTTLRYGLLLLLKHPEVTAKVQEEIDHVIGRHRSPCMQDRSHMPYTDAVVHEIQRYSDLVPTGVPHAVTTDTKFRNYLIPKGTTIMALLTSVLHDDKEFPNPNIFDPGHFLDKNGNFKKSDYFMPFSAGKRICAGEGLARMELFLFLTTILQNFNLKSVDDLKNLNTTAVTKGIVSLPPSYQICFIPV
Protocol: as §1, §2, §3, §4, §5, §6, §7, §8, §9, §10

[1] = [3H]-dopamine uptake, hDAT-CHO cells, read-out: DAT Uptake SPA (pIC50) (converted)
[2] = recombinant human isoenzyme, n=2, read-out: Inhibition of CYP2B6, IC50
[3] = recombinant human isoenzyme, n=2, read-out: Inhibition of CYP2C8, IC50

T1 sequence (Q01959 whole entry): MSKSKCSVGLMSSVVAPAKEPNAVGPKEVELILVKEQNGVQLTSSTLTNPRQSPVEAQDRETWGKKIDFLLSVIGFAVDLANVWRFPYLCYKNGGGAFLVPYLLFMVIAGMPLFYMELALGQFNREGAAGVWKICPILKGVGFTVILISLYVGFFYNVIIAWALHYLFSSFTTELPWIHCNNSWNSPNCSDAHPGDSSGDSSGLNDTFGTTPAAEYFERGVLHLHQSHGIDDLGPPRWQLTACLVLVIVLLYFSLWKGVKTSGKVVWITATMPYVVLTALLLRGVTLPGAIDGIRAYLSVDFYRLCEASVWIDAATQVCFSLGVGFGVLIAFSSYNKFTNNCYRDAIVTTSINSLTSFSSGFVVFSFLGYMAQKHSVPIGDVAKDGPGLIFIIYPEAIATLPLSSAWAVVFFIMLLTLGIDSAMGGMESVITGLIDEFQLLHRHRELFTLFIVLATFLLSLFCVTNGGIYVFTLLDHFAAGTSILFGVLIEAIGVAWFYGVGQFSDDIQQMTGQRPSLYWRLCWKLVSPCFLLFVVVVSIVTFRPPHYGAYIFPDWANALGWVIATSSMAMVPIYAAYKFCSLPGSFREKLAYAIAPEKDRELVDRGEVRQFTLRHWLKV

Row | Compound | IC50 (human DAT; [1]) [µM] | IC50 (CYP2B6; [2]) [µM] | IC50 (CYP2C8; [3]) [µM] | DAT Uptake SPA (pIC50) (human DAT; [3H]-dopamine uptake, hDAT-CHO cells) | IC50 (human DAT) [µM] | IC50 (CYP2B6) [µM] | IC50 (CYP2C8) [µM]
1 | COC(=O)c1cc2c(cc1OC)CC(N)C2 (stereo not drawn) [CMP-401] | 100 | > 50 | > 50 |  |  |  | 
2 | COC(=O)COc1ccc2c(c1)CC(N)C2 (stereo not drawn) [CMP-402] | 100 | > 50 | > 50 |  |  |  | 
3 | COC(=O)c1ccc2c(c1)CC(N)C2 (stereo not drawn) [CMP-405, 2-aminoindane-5-methylcarboxylate] | 20 | > 50 | > 50 |  |  |  | 
4 | CNC(C)Cc1ccc2c(c1)OCO2 (stereo not drawn) [MDMA] |  | > 50 | > 50 | 5.7 |  |  | 
5 | COc1ccc2c(c1)CC(N)C2 (stereo not drawn) [MEAI, 5-methoxy-2-aminoindane] |  |  |  |  | 50.1 | > 50 | > 50
6 | COc1cc2c(cc1C)CC(N)C2 (stereo not drawn) [MMAI, 5-methoxy-6-methyl-2-aminoindane] |  |  |  |  | 50.1 | > 50 | > 50
